Experimental data as given in US5116833A, “Antibiotic C-3 dithioacetal-substituted carbapenem compounds, compositions, and methods of use thereof” (Bristol-Myers Squibb Company, priority 1990, dated 1992).
Values after ≈ are worked out from the molar mass of the structure shown. One block for each compound: values may come before it.

Tests used:
[1] = Half-life (T1/2) in solution at stated pH (chemical stability); type: physicochemical
[2] = Blood levels and half-life after oral administration in mice; type: in vivo; settings: mouse, 50 mg/kg
Protocol: (§1) In order to illustrate the potent antibacterial activity and significant oral bioavailability of the carbapenems of the present invention, Tables I, II and III show data for in vitro activities (MIC), oral in vivo activities (PD50) and blood levels after oral administration of the representative drugs (Cmax, t1/2 and AUC), respectively. Blood levels and the half-life of selected compounds of the present invention after oral administration at 50 mg/kg in mice is shown in Table III.

S. pneumoniae A-9585 = experiment: Protective effect in the oral treatment of infected mice, S. pneumoniae A-9585; type: in vivo; settings: Streptococcus pneumoniae, A9585, intraperitoneal challenge S. pneumoniae A-9585, 5 × 10^3 organisms, read-out: PD50/Treatment
Protocol: as §1, with “respectively.” for “respectively. Blood levels and the half-life of selected compounds of the present invention after oral administration at 50 mg/kg in mice is shown in Table III.”
(§2) The in vivo therapeutic efficacy of the representative compounds after oral administration to mice infected intraperitoneally with 0.5 ml of various bacterial suspension is shown in Table II. The values are given in PD50 (dose in mg/kg to give protection to 50% of the infected mice).

E. coli A-15119 = experiment: Protective effect in the oral treatment of infected mice, E. coli A-15119; type: in vivo; settings: Escherichia coli, A15119, intraperitoneal challenge E. coli A-15119, 6 × 10^6 organisms, read-out: PD50/Treatment
Protocol: as §1, with “respectively.” for “respectively. Blood levels and the half-life of selected compounds of the present invention after oral administration at 50 mg/kg in mice is shown in Table III.”
as §2

P. mirabalis A-9900 = experiment: Protective effect in the oral treatment of infected mice, P. mirabalis A-9900; type: in vivo; settings: Mus musculus, intraperitoneal challenge P. mirabalis A-9900, 4 × 10^6 organisms, read-out: PD50/Treatment
Protocol: as §1, with “respectively.” for “respectively. Blood levels and the half-life of selected compounds of the present invention after oral administration at 50 mg/kg in mice is shown in Table III.”
as §2

Ps. aeur. A9843 = experiment: Minimal Inhibitory Concentration, microtiter broth dilution, Ps. aeur. A9843; type: cell-based; settings: Nutrient broth, approximately 500,000 CFU/ml, 35° C. overnight
Description: as §1, with “respectively.” for “respectively. Blood levels and the half-life of selected compounds of the present invention after oral administration at 50 mg/kg in mice is shown in Table III.”
(§3) The determination was done by using microtiter broth dilution using Nutrient broth and final bacterial inoculum of approximately 500,000 CFU/ml from overnight cultures of the bacterium. The microtiter trays were then incubated at 35° C. overnight. The MIC's were determined in μg/ml as the lowest concentration of the drug which inhibits visible growth of the bacterium.

Str. Pneu. A9525 = experiment: Minimal Inhibitory Concentration, microtiter broth dilution, Str. Pneu. A9525; type: cell-based; settings: Nutrient broth, approximately 500,000 CFU/ml, 35° C. overnight
Description: as §1, with “respectively.” for “respectively. Blood levels and the half-life of selected compounds of the present invention after oral administration at 50 mg/kg in mice is shown in Table III.”
as §3

E. coli A15119 = experiment: Minimal Inhibitory Concentration, microtiter broth dilution, E. coli A15119; type: cell-based; settings: Escherichia coli, Nutrient broth, approximately 500,000 CFU/ml, 35° C. overnight
Description: as §1, with “respectively.” for “respectively. Blood levels and the half-life of selected compounds of the present invention after oral administration at 50 mg/kg in mice is shown in Table III.”
as §3

Staph. aur. PenR = experiment: Minimal Inhibitory Concentration, microtiter broth dilution, Staph. aur. PenR; type: cell-based; settings: Nutrient broth, approximately 500,000 CFU/ml, 35° C. overnight
Description: as §1, with “respectively.” for “respectively. Blood levels and the half-life of selected compounds of the present invention after oral administration at 50 mg/kg in mice is shown in Table III.”
as §3

SMILES: CSCSC1=C(C(=O)O)N2C(=O)[C@H]([C@@H](C)O)[C@H]2C1 [Ia, Potassium or Sodium (5R,6S)-6-[1'(R)-hydroxyethyl]-3-[[(methylthio)methyl]thio]-7-oxo-1-azabicyclo[3.2.0]hept-2-ene-2-carboxylate]
- half-life ([1]; pH 7.4): 20 h

SMILES: CSCSC1=C(C(=O)O)N2C(=O)[C@H]([C@@H](C)O)[C@H]2[C@H]1C [Ib'']
- AUC [2]: 21000 ng·h/mL
- Cmax [2]: 27000 ng/mL
- half-life [2]: 0.417 h
- ED50 (S. pneumoniae A-9585): 1.4 mg/kg
- ED50 (E. coli A-15119): 3.5 mg/kg
- half-life ([1]; pH 2): 0.313 h
- half-life ([1]; pH 7.4): 75 h
- ED50 (P. mirabalis A-9900): 3.6 mg/kg

SMILES: C[C@@H](O)[C@H]1C(=O)N2C(C(=O)O)=C(SCSc3ccc(C(=O)NN)cc3)[C@H](C)[C@H]12 [Ibb, (4R,5S,6S)-3-[[[[(p-hydrazinocarbonyl)phenyl]thio]methyl]thio]-6-[1'(R)-hydroxyethyl]-4-methyl-7-oxo-1-azabicyclo[3.2.0]hept-2-ene-2-carboxylate]
- Cmax [2]: < 1000 ng/mL
- ED50 (S. pneumoniae A-9585): 16.5 mg/kg

SMILES: C[C@@H](O)[C@H]1C(=O)N2C(C(=O)O)=C(SCSc3ccncc3)C[C@H]12 [Ic, Potassium or sodium (5R,6S)-6-[1'(R)-hydroxyethyl]-3-[[[(pyridin-4-yl)thio]methyl]thio]-7-oxo-1-azabicyclo[3.2.0]hept-2-ene-2-carboxylate]
- half-life ([1]; pH 7.4): 15 h

SMILES: Cc1nnc(SCSC2=C(C(=O)O)N3C(=O)[C@H]([C@@H](C)O)[C@H]3[C@H]2C)o1 [Icc, (4R,5S,6S)-6-[1'(R)-hydroxyethyl]-4-methyl-3-[[[(5-methyl-1,3,4-oxadiazol-2-yl)thio]methyl]thio]-7-oxo-1-azabicyclo-[3.2.0]hept-2-ene-2-carboxylate]
- AUC [2]: 11000 ng·h/mL
- Cmax [2]: 20000 ng/mL
- half-life [2]: 0.233 h
- MIC (Ps. aeur. A9843): 32 µg/mL (≈ 86.2 µM)
- ED50 (S. pneumoniae A-9585): 0.2 mg/kg
- ED50 (E. coli A-15119): 1.4 mg/kg
- MIC (Str. Pneu. A9525): 0.001 µg/mL (≈ 0.00269 µM)
- MIC (E. coli A15119): 0.004 µg/mL (≈ 0.0108 µM)
- MIC (Staph. aur. PenR): 0.03 µg/mL (≈ 0.0808 µM)

SMILES: C[C@@H](O)[C@H]1C(=O)N2C(C(=O)O)=C(SCSc3ccccc3)[C@H](C)[C@H]12 [Id, (4R,5S,6S)-6-[1'(R)-hydroxyethyl]-4-methyl-3-[[(phenylthio)methyl]thio]-7-oxo-1-azabicyclo[3.2.0]hept-2-ene-2-carboxylate]
- half-life ([1]; pH 2): 0.313 h
- half-life ([1]; pH 7.4): 100 h

SMILES: Cc1nnc(SCSC2=C(C(=O)O)N3C(=O)[C@H]([C@@H](C)O)[C@H]3[C@H]2C)s1 [Idd, (4R,5S,6S)-6-[1'(R)-hydroxyethyl]-4-methyl-3-[[[(5-methyl-1,3,4-thiadiazol-2-yl)thio]methyl]thio]-7-oxo-1-azabicyclo[3.2.0]hept-2-ene-2-carboxylate]
- AUC [2]: 10000 ng·h/mL
- Cmax [2]: 12000 ng/mL
- half-life [2]: 0.4 h
- MIC (Ps. aeur. A9843): 32 µg/mL (≈ 82.6 µM)
- ED50 (S. pneumoniae A-9585): 0.3 mg/kg
- ED50 (E. coli A-15119): 3.85 mg/kg
- MIC (Str. Pneu. A9525): 0.001 µg/mL (≈ 0.00258 µM)
- MIC (E. coli A15119): 0.008 µg/mL (≈ 0.0206 µM)
- MIC (Staph. aur. PenR): 0.016 µg/mL (≈ 0.0413 µM)

SMILES: C[C@@H](O)[C@H]1C(=O)N2C(C(=O)O)=C(SCSc3ccccn3)C[C@H]12 [Ie, Sodium (5R,6S)-6-[1'(R)-1-hydroxyethyl]-3-[[[(pyridin-2-yl)thio]methyl]thio]-7-oxo-1-azabicyclo[3.2.0]hept-2-ene-2-carboxylate]
- half-life ([1]; pH 7.4): 19 h

SMILES: C[C@@H](O)[C@H]1C(=O)N2C(C(=O)O)=C(SCSc3ccccn3)[C@H](C)[C@H]12 [If, Sodium (4R,5S,6S)-6-[1'(R)-hydroxyethyl]-4-methyl-3-[[[(pyridin-2-yl)thio]methyl]thio]-7-oxo-1-azabicyclo[3.2.0]hept-2-ene-2-carboxylate]
- half-life ([1]; pH 2): 0.6 h
- half-life ([1]; pH 7.4): 79 h

SMILES: C[C@@H](O)[C@H]1C(=O)N2C(C(=O)O)=C(SCSc3ccncc3)[C@H](C)[C@H]12 [Ig, (4R,5S,6S)-6-[1'(R)-hydroxyethyl]-4-methyl-3-[[[(pyridin-4-yl)thio]methyl]thio]-7-oxo-1-azabicyclo[3.2.0]hept-2-ene-2-carboxylate]
- half-life ([1]; pH 2): 0.567 h

SMILES: C[C@@H](O)[C@H]1C(=O)N2C(C(=O)O)=C(SCSc3cccnc3)C[C@H]12 [Ih, Sodium (5R,6S)-6-[1'(R)-hydroxyethyl]-3-[[[(pyridin-3-yl)thio]methyl]thio]-7-oxo-1-azabicyclo[3.2.0]hept-2-ene-2-carboxylate]
- half-life ([1]; pH 2): 0.0333 h
- half-life ([1]; pH 7.4): 22 h

SMILES: C[C@@H](O)[C@H]1C(=O)N2C(C(=O)O)=C(SCSc3cccnc3)[C@H](C)[C@H]12 [Ii, (4R,5S,6S)-6-[1'(R)-hydroxyethyl]-4-methyl-3-[[[(pyridin-3-yl)thio]methyl]thio]-7-oxo-1-azabicyclo[3.2.0]hept-2-ene-2-carboxylate]
- half-life ([1]; pH 2): 0.583 h
- half-life ([1]; pH 7.4): 74 h

SMILES: C[C@@H](O)[C@H]1C(=O)N2C(C(=O)O)=C(SCSc3ccc(Cl)cc3)C[C@H]12 [Ij, (5R,6S)-6-[1'(R)-hydroxyethyl]-3-[[[(p-chlorophenyl)thio]methyl]thio]-7-oxo-1-azabicyclo[3.2.0]hept-2-ene-2-carboxylate]
- half-life ([1]; pH 7.4): 26 h

SMILES: C[C@@H](O)[C@H]1C(=O)N2C(C(=O)O)=C(SCSc3ccc(Cl)cc3)[C@H](C)[C@H]12 [Ik, (4R,5S,6S)-6-[1' (R)-hydroxyethyl]-4-methyl-3-[[[(p-chlorophenyl)thio]methyl]thio]-7-oxo-1-azabicyclo[3.2.0]hept-2-ene-2-carboxylate]
- AUC [2]: 34000 ng·h/mL
- Cmax [2]: 40000 ng/mL
- half-life [2]: 0.55 h
- MIC (Ps. aeur. A9843): 63 µg/mL (≈ 158 µM)
- MIC (Str. Pneu. A9525): 0.004 µg/mL (≈ 0.01 µM)
- half-life ([1]; pH 7.4): 97 h
- MIC (E. coli A15119): 2 µg/mL (≈ 5 µM)
- MIC (Staph. aur. PenR): 0.03 µg/mL (≈ 0.075 µM)

SMILES: C[C@@H](O)[C@H]1C(=O)N2C(C(=O)O)=C(SCSc3ccc(Cl)c(Cl)c3)[C@H](C)[C@H]12 [Iq, (4R,5S,6S)-3-[[[(3,4-dichlorophenyl)thio]methyl]thio]-6-[1'(R)-hydroxyethyl]-4-methyl-7-oxo-1-azabicyclo-[3.2.0]hept-2-ene-2-carboxylate]
- AUC [2]: 24000 ng·h/mL
- Cmax [2]: 33000 ng/mL
- half-life [2]: 0.417 h
- ED50 (E. coli A-15119): 25 mg/kg
- half-life ([1]; pH 7.4, 37° C.): 99 h

More lines, now with the values ahead:

- half-life ([1]; pH 2, 37° C.): 0.333 h
SMILES: CSC(C)SC1=C(C(=O)O)N2C(=O)[C@H]([C@@H](C)O)[C@H]2[C@H]1C (single isomer, unassigned) [Iv-A]

- T1/2 ([1]; pH 2, 37° C.): 0.333 h
- half-life ([1]; pH 7.4, 37° C.): 56 h
SMILES: CSC(C)SC1=C(C(=O)O)N2C(=O)[C@H]([C@@H](C)O)[C@H]2[C@H]1C (single isomer, unassigned) [Iv-B]

- half-life ([1]; pH 7.4): 46 h
SMILES: C[C@@H](O)[C@H]1C(=O)N2C(C(=O)O)=C(SC[S+](C)[O-])[C@H](C)[C@H]12 (some centres unmarked) [Im]

- half-life ([1]; pH 7.4, 37° C.): 106 h
SMILES: C[C@@H](O)[C@H]1C(=O)N2C(C(=O)O)=C(SC[S+]([O-])c3ccc(Cl)cc3)[C@H](C)[C@H]12 (stereo partly drawn) [In, (4R,5S,6S)-3-[[[(p-chlorophenyl)sulfinyl]methyl]thio]-6-[1'(R)-hydroxyethyl]-4-methyl-7-oxo-1-azabicyclo[3.2.0]hept-2-ene-2-carboxylate]

- half-life ([1]; pH 7.4, 37° C.): 77 h
SMILES: C[C@@H](O)[C@H]1C(=O)N2C(C(=O)O)=C(SCSCc3cccnc3)[C@H](C)[C@H]12 [Io, (4R,5S,6S)-6-[1'(R)-hydroxyethyl]-4-methyl-3-[[[[(pyridin-3-yl)methyl]thio]methyl]thio]-7-oxo-1-azabicyclo-[3.2.0]hept-2-ene-2-carboxylate]

- half-life ([1]; pH 7.4, 37° C.): 43 h
SMILES: C[C@@H](O)[C@H]1C(=O)N2C(C(=O)O)=C(SC[S+]([O-])Cc3cccnc3)[C@H](C)[C@H]12 (stereo partly drawn) [Ip, (4R,5S,6S)-6-[1'(R)-hydroxyethyl]-4-methyl-3-[[[[(pyridin-3-yl)methyl]sulfinyl]methyl]thio]-7-oxo-1-azabicyclo[3.2.0]hept-2-ene-2-carboxylate]

- half-life ([1]; pH 7.4, 37° C.): 41 h
SMILES: C[C@@H](O)[C@H]1C(=O)N2C(C(=O)O)=C(SCSc3c(F)c(F)c(F)c(F)c3F)[C@H](C)[C@H]12 [Ir, Sodium (4R,5S,6S)-6-[1'(R)-hydroxyethyl]-4-methyl-3-[[[(2,3,4,5,6-pentafluorophenyl)thio]methyl]thio]-7-oxo-1-azabicyclo[3.2.0]hept-2-ene-2-carboxylate]
